Patent publication US9795602B2, “Polycyclic-carbamoylpyridone compounds and their pharmaceutical use” (Gilead Sciences, Inc., priority 2014, dated 2017)

Legend:
[1] = Pharmacokinetics after oral administration to male SD rats; assay type: in vivo; conditions: Sprague-Dawley, plasma, rat, oral gavage 0.5 mg/kg, solution, read-out: % F (solution)
Experimental: (§1) Pharmacokinetic analysis was performed on compounds 25b and 39 following intravenous or oral administration to rats.
(§2) The test compounds were formulated in 5% Ethanol, 55% PEG 300, and 40% water at 0.1 mg/mL for IV infusion and for oral dosing.
(§3) Each dosing group consisted of 3 male, Sprague-Dawley rats. At dosing, the animals weighed an average of 0.25 kg. The animals were fasted overnight prior to dose administration and up to 4 hr after dosing.
(§4) For the IV infusion group, the test article was administered by intravenous infusion over 30 min. The rate of infusion was adjusted according to the body weight of each animal to deliver a dose of 0.5 mg/kg. For the oral dosing group, the test article was administered by oral gavage at 5 mL/kg for a dose of 0.5 mg/kg.
For pharmacokinetic analysis of orally administered compounds, serial venous blood samples (approximately 0.3 mL each) were taken from each animal at time points of 0, 0.25, 0.50, 1.0, 2.0, 4.0, 6.0, 8.0, 12.0 24.0, 48.0 and 72 hours after dosing. Blood samples were collected, prepared and analyzed in a similar way to the intravenous studies described above. Non-compartmental pharmacokinetic analysis was performed on the plasma concentration-time data. In Table 2, F (%) refers to oral bioavailability.

wild-type HIV-1 = experiment: Antiviral assay in MT-2 cells, wild-type HIV-1; assay type: cell-based; conditions: Human immunodeficiency virus 1, 120 h; MT2 cells, wild-type HIV-1, 5 days; read-out: wt
Experimental: For the antiviral assay utilizing MT-2 cells, 50 μL of 2× test concentration of 3-fold serially diluted compound in culture medium with 10% FBS was added to each well of a 96-well plate (9 concentrations) in triplicate. MT-2 cells were infected with wild-type or mutant variants of HIV-1 for 3 hours using a volume of viral inoculum determined to produce 90% cell killing. Fifty microliters of infected cell suspension in culture medium with 10% FBS (˜1.5×10^4 cells) was then added to each well containing 50 μL of serially diluted compound. The plates with HIV-infected cultures were then incubated at 37° C. for 5 days in the presence of the tested compounds. After 5 days of incubation, 100 μL of CellTiter-Glo™ Reagent (catalog # G7571, Promega Biosciences, Inc., Madison, Wis.) was added to each well. Cell lysis was carried out by incubating at room temperature for 10 min followed by a chemiluminescence read-out.
The chemiluminescence readout from the 10-point antiviral dose response was analyzed directly by curve fitting with equation (I) to determine the EC50.
where y=Cell Survival, M=maximum cell survival enabled by drug protection, H=baseline cell survival without drug protection, n=Hill coefficient of the antiviral dose response, m=Hill coefficient of the cytotoxicity dose response, and [I]=inhibitor concentration.
EC50 values (mean±standard deviation) were calculated from at least three independent experiments performed in triplicate. The fold-change in antiviral activity of tested compounds was calculated as a ratio of the mean EC50 for each mutant virus divided by the mean EC50 of the control WT virus.

[2] = Pharmacokinetics after intravenous infusion to male SD rats; assay type: in vivo; conditions: Sprague-Dawley, plasma, rat, IV infusion 0.5 mg/kg; for Vd: read-out: Vss
Experimental: as §1, §2, §3, §4
For pharmacokinetic analysis of intravenously administered compounds, serial venous blood samples (approximately 0.3 mL each) were taken from each animal at 0, 0.250, 0.483, 0.583, 0.750, 1.50, 3.00, 6.00, 8.00, 12.0, 24.0, 48 and 72 hours after dosing. The blood samples were collected into Vacutainer™ tubes containing EDTA-K2 as the anti-coagulant and were immediately placed on wet ice pending centrifugation for plasma. An LC/MS/MS method was used to measure the concentration of the test compound in plasma. An aliquot of 50 μL of each plasma sample was added to a clean 96 well plate, and 200 μL of cold acetonitrile/internal standard solution (ACN)/(ISTD) was added. After protein precipitation, an aliquot of 110 μL of the supernatant was transferred to a clean 96-well plate and diluted with 300 μL of water. An aliquot of 10 μL of the above solution was injected into a ABSciex API-4000 triple quadrupole LC/MS/MS system utilizing a HyPurity C18 HPLC column (30×2.1 mm, 3μ), from Thermo-Hypersil (Part #22103-032130). An Agilent 1200 series binary pump (P/N G1312A Bin Pump) was used for elution and separation, and an HTS Pal autosampler (LEAP Technologies, Carrboro, N.C.) was used for sample injection. A API-4000 triple quadrupole mass spectrometer was utilized in multiple reaction monitoring mode (Applied Biosystems, Foster City, Calif.). Liquid chromatography was performed using two mobile phases: mobile phase A contained 0.1% formic acid and 1% isopropylamine in aqueous solution, and mobile phase B contained […]. Non-compartmental pharmacokinetic analysis was performed on the plasma concentration-time data. The resulting data are shown in the first three columns of Table 2. In Table 2, Cl refers to clearance, which characterizes the rate at which drug is removed from plasma. The lower the clearance of a drug is, the longer the elimination half-life is in the body. Vss refers to the steady state volume of distribution and indicates how well a drug is distributed into the tissues. The larger the Vss is, the longer the elimination half-life is in the body. MRT refers to mean residence time, which is a measure of the average time molecules exist in the body.

PXR (NR1I2) = PXR (NR1I2) (Homo sapiens (Human), UniProt O75469); experiment: Human PXR activation assay (luciferase reporter, DPX2 cells); assay type: cell-based; conditions: human; 15 uM; DPX2 cells; % Emax relative to rifampicin, adjusted for DMSO background; read-out: PXR % inh at 15 uM (adjusted)
Experimental: Luciferase Reporter Gene Assay.
A stably transformed tumor cell line (DPX2) was plated on 96-well microtiter plates. […]. The number of viable cells was determined and the reporter gene activity was assessed. […]

Sequence of PXR (NR1I2) (O75469 whole entry): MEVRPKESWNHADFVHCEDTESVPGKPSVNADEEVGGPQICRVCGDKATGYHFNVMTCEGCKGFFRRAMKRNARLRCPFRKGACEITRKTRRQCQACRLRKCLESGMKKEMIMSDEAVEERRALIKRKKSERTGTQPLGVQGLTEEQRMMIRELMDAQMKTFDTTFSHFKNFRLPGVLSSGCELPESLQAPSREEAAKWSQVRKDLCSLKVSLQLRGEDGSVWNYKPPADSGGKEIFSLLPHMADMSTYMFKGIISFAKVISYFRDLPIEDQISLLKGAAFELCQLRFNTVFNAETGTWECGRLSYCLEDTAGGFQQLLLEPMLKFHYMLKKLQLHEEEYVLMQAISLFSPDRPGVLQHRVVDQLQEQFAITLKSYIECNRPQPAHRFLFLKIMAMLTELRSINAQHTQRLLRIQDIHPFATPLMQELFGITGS

Structure (SMILES)	bioavailability [1] [%]	EC50 (wild-type HIV-1) [nM]	MRT [2] [h]	clearance [2] [mL/h/kg]	Vd [2] [L/kg]	inhibition at 24 h, 15 µM (PXR (NR1I2)) [%]
CCN1C(=O)c2c(O)c(=O)c(C(=O)NCc3ccc(F)c(Cl)c3F)cn2[C@H]2CCO[C@H]21 [Compound 25b]	39	1.4	119	1.3	0.141	13
CCN1C(=O)c2c(O)c(=O)c(C(=O)NCc3ccc(F)c(Cl)c3F)cn2[C@H]2CCOC[C@H]21 [Compound 39]	15	0.9	105	2.3	0.212	5
